Among the data in patent US20230233569A1 (Revolution Medicines, Inc., priority 2020, published 2023) are IC50 and EC50 values, retold here.

Assay [1] addresses NRAS G12C (Homo sapiens, UniProt P01111+P62937, G12C). As to the kind of experiment: Ras-Raf disruption / FRET / MOA assay (BRAF RBD). The following applies: NRAS G12C FRET data IC50, NRAS G12C. It counts as biochemical. The essentials:
(§1)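 TR-FRET in 25 mM HEPES pH 7.3, 100 mM NaCl, 5 mM MgCl2, 0.1% BSA, 0.002% Tween20 with 25 μM Cyclophilin A, 12.5 nM His6-Ras-GMPPNP, 50 nM GST-BRAF RBD; compound 10-point 3-fold series from 30 μM. After 3 h at 25 °C, Eu anti-His/APC anti-GST added for 1.5 h; IC50 from ratio decrease versus DMSO.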

For assay [2], the target named is KRAS G13C (Homo sapiens, UniProt P01116+P62937, G13C). As to the kind of experiment: Ras-Raf disruption / FRET / MOA assay (BRAF RBD). It counts as biochemical. The following applies: KRAS G13C FRET data IC50, Ras-Raf disruption, with Cyclophilin A. The essentials: as §1
In assay [3] the target is KRAS WT (Homo sapiens, UniProt P01116+P62937). As to the kind of experiment: Ras-Raf disruption / FRET / MOA assay (BRAF RBD). It counts as biochemical. The following applies: KRAS WT FRET data IC50, Ras-Raf disruption, with Cyclophilin A. The essentials:
as §1

Assay [4] deals with KRAS G13D (Homo sapiens, UniProt P01116+P62937, G13D). As to the kind of experiment: Ras-Raf disruption / FRET / MOA assay (BRAF RBD). The assay is classed as biochemical. The following applies: KRAS G13D FRET data IC50, Ras-Raf disruption, with Cyclophilin A. Put shortly: as §1
Assay [5] has as its target KRAS G12V (Homo sapiens, UniProt P01116+P62937, G12V). As to the kind of experiment: Ras-Raf disruption / FRET / MOA assay (BRAF RBD). The assay is classed as biochemical. The settings on record: KRAS G12V FRET data IC50, Ras-Raf disruption, with Cyclophilin A. The essentials: as §1
Assay [6] addresses KRAS G12D (Homo sapiens, UniProt P01116+P62937, G12D). In words: Ras-Raf disruption / FRET / MOA assay (BRAF RBD). It counts as biochemical. The settings on record: KRAS G12D FRET data IC50, Ras-Raf disruption, with Cyclophilin A. Put shortly:
as §1

Assay [7] concerns the target KRAS G12S (Homo sapiens, UniProt P01116+P62937, G12S). In words: Ras-Raf disruption / FRET / MOA assay (BRAF RBD). The assay is classed as biochemical. The following applies: KRAS G12S FRET data IC50, Ras-Raf disruption, with Cyclophilin A. Put shortly: as §1
In assay [8] the target is KRAS G12C (Homo sapiens, UniProt P01116+P62937, G12C). In words: Ras-Raf disruption / FRET / MOA assay (BRAF RBD). It counts as biochemical. The settings on record: KRAS G12C FRET data IC50, Ras-Raf disruption, with Cyclophilin A. Put shortly:
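His6-K-Ras G12C-GMPPNP (12.5 nM), GST-BRAF RBD (50 nM) and tagless Cyclophilin A (25 μM) incubated 3 h at 25 °C with compound (10-point 3-fold series from 30 μM), pH 7.3 HEPES buffer. Anti-His Eu/anti-GST APC added for 1.5 h; decreased TR-FRET ratio vs DMSO gives IC50.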

Assay [9] has as its system AsPC-1 (K-Ras G12D). In words: CellTiter-Glo cell viability assay. The assay is classed as cell-based. The following applies: Homo sapiens, ASPC1, 120 h. How it is done: Determination of Cell Viability in RAS Mutant Cancer Cell Lines
Protocol: CellTiter-Glo® Cell Viability Assay
Note—The following protocol describes a procedure for monitoring cell viability of K-Ras mutant cancer cell lines in response to a compound of the invention. Other RAS isoforms may be employed, though the number of cells to be seeded will vary based on cell line used.
Test compounds (132.5 nL) were directly dispensed into the assay plates containing cells. […] On day 5, assay plates and their contents were equilibrated to room temperature for approximately 30 minutes. […] Luminescence was measured using the PerkinElmer Enspire. Data were normalized by the following: (Sample signal/Avg. DMSO)*100. The data were fit using a four-parameter logistic fit.

Assay [10] concerns AsPC-1 (K-Ras G12D). As to the kind of experiment: Potency assay: pERK. It counts as cell-based. The following applies: Homo sapiens.
The target in assay [11] is KRAS Q61H (Homo sapiens, UniProt P01116+P62937, Q61H). As to the kind of experiment: Ras-Raf disruption / FRET / MOA assay (BRAF RBD). It counts as biochemical. Put shortly:
as §1

Assay [12] has as its target NRAS WT (Homo sapiens, UniProt P01111+P62937). As to the kind of experiment: Ras-Raf disruption / FRET / MOA assay (BRAF RBD). It counts as biochemical. The essentials:
as §1

The target of assay [13] is NRAS Q61K (Homo sapiens, UniProt P01111+P62937, Q61K). As to the kind of experiment: Ras-Raf disruption / FRET / MOA assay (BRAF RBD). The assay is classed as biochemical. Put shortly:
as §1

Assay [14] deals with NRAS Q61R (Homo sapiens, UniProt P01111+P62937, Q61R). In words: Ras-Raf disruption / FRET / MOA assay (BRAF RBD). The assay is classed as biochemical. The essentials: as §1
The mark [15] stands for this setting: read-out: AsPC-1 Cell Viability assay data IC50, K-Ras G12D, 5-day treatment.

Each structure is given as a SMILES string. Like-named read-outs stand apart in the source and are kept apart here.

Chain of NRAS G12C (P01111 whole entry G12C): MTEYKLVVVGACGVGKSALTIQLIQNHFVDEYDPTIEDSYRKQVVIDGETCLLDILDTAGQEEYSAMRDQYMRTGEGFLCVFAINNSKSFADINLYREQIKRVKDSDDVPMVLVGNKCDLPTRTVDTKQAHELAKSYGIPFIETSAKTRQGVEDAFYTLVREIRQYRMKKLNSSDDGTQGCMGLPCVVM
Chain of NRAS G12C (P62937 whole entry): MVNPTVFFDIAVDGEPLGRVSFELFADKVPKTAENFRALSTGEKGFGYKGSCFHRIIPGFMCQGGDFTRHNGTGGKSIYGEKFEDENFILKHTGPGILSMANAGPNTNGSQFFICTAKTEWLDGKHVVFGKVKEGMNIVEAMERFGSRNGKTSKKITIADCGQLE
Chain of KRAS G12S (P01116 1-169 isoform P01116-2 G12S limits assumed): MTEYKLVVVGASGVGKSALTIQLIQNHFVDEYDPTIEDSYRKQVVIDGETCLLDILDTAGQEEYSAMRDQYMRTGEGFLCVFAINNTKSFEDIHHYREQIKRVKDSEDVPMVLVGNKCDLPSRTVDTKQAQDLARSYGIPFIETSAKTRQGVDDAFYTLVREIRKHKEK
Chain of KRAS G12S (P62937 whole entry): as the sequence (P62937 whole entry) above
Chain of KRAS G13C (P01116 1-169 isoform P01116-2 G13C limits assumed): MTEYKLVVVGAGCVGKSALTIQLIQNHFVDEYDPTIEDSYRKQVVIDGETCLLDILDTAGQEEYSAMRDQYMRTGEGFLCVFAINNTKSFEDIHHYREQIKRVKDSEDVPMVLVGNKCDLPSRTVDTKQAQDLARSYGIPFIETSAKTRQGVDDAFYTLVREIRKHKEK
Chain of KRAS G13C (P62937 whole entry): as the sequence (P62937 whole entry) above
Chain of KRAS WT (P01116 1-169 isoform P01116-2 limits assumed): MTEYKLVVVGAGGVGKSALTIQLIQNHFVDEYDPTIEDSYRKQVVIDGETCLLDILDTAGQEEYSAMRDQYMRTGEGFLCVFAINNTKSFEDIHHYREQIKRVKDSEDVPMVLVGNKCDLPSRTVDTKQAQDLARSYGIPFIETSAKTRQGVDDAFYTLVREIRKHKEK
Chain of KRAS WT (P62937 whole entry): as the sequence (P62937 whole entry) above
Chain of KRAS G12V (P01116 1-169 isoform P01116-2 G12V limits assumed): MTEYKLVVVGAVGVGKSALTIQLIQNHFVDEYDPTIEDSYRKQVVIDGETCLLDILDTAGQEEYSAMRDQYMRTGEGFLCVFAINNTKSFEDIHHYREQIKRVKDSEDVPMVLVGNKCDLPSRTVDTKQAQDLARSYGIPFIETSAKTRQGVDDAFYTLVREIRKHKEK
Chain of KRAS G12V (P62937 whole entry): as the sequence (P62937 whole entry) above
Chain of KRAS G12C (P01116 1-169 isoform P01116-2 G12C limits assumed): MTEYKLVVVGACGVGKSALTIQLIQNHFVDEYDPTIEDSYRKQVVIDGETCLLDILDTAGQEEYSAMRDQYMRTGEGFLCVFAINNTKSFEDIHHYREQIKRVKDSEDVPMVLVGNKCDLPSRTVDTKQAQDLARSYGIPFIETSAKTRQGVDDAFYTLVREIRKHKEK
Chain of KRAS G12C (P62937 whole entry): as the sequence (P62937 whole entry) above
Chain of KRAS G12D (P01116 1-169 isoform P01116-2 G12D limits assumed): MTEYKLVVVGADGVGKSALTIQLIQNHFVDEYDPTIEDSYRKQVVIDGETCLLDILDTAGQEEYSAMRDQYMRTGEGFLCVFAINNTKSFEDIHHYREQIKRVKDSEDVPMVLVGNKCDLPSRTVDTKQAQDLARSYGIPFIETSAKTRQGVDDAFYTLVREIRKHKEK
Chain of KRAS G12D (P62937 whole entry): as the sequence (P62937 whole entry) above
Chain of KRAS G13D (P01116 1-169 isoform P01116-2 G13D limits assumed): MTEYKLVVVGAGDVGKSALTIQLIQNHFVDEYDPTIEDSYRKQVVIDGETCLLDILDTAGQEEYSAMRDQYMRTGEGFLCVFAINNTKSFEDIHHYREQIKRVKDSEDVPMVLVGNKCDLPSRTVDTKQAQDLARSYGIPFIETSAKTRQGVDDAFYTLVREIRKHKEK
Chain of KRAS G13D (P62937 whole entry): as the sequence (P62937 whole entry) above
Chain of NRAS Q61R (P01111 whole entry Q61R): as the sequence (P01111 whole entry G12C) above, with C12G, Q61R counted along it
Chain of NRAS Q61R (P62937 whole entry): as the sequence (P62937 whole entry) above
Chain of NRAS Q61K (P01111 whole entry Q61K): as the sequence (P01111 whole entry G12C) above, with C12G, Q61K counted along it
Chain of NRAS Q61K (P62937 whole entry): as the sequence (P62937 whole entry) above
Chain of KRAS Q61H (P01116 1-169 isoform P01116-2 Q61H limits assumed): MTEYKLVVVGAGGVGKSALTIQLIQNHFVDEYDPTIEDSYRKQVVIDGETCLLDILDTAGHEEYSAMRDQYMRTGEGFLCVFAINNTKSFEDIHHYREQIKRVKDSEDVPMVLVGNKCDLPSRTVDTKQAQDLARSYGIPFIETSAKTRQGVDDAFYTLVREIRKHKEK
Chain of KRAS Q61H (P62937 whole entry): as the sequence (P62937 whole entry) above
Chain of NRAS WT (P01111 whole entry): as the sequence (P01111 whole entry G12C) above, with C12G counted along it
Chain of NRAS WT (P62937 whole entry): as the sequence (P62937 whole entry) above

For `CCn1c(-c2cccnc2[C@H](C)OC)c2c3cc(ccc31)-c1cc(O)cc(c1)C[C@H](NC(=O)[C@H](C(C)C)N(C)C(=O)CNC(=O)[C@H]1CN1)C(=O)N1CCC[C@H](N1)C(=O)OCC(C)(C)C2` [Example 140], the IC50 in [1] is < 10 nM; in [2], < 10 nM; in assay [3] it was 10 to 100 nM; in [4], 10 to 100 nM; in assay [5], 10 to 100 nM; in assay [6], 10 to 100 nM. The figures for the IC50 in assay [7], in assay [8] and in assay [9] (setting [15]) were 10 to 100 nM, < 10 nM and 1 to 10 µM, respectively. Besides, the EC50 in assay [10] (ASPC1, read-out: pERK EC50) is < 5 µM.
With `CCn1c(-c2cccnc2[C@H](C)OC)c2c3cc(ccc31)-c1cc(O)cc(c1)C[C@H](NC(=O)[C@H](C(C)C)N(C)C(=O)CNC(=O)[C@@H]1CN1)C(=O)N1CCC[C@H](N1)C(=O)OCC(C)(C)C2` [Example 147], the IC50 in assay [1] lay in the range of 10 to 100 nM; in assay [2], 10 to 100 nM; in assay [3] it was 10 to 100 nM; in assay [4] it was 100 to 1000 nM; in [5] it was 10 to 100 nM; in assay [6], 100 to 1000 nM. Also, the results for the IC50 in assay [7], in assay [8] and in assay [9] (setting [15]) were 10 to 100 nM, 10 to 100 nM and 1 to 10 µM, respectively. For the same molecule, in assay [10] (ASPC1, read-out: pERK EC50), the EC50 is < 5 µM.
For the molecule `CCn1c(-c2cccnc2[C@H](C)OC)c2c3cc(ccc31)-c1cc(O)cc(c1)C[C@H](NC(=O)[C@H](C(C)C)N(C)C(=O)[C@H]1CCCN1C(=O)[C@@H]1CN1)C(=O)N1CCC[C@H](N1)C(=O)OCC(C)(C)C2` [Example 151], the IC50 in [1] was < 10 nM; in assay [2], 100 to 1000 nM; in assay [3] it was 100 to 1000 nM; in assay [4], 100 to 1000 nM; in assay [5], 10 to 100 nM; in [6] it was 100 to 1000 nM. The IC50 is 100 to 1000 nM in assay [7], < 10 nM in assay [8] and 1 to 10 µM in [9] (setting [15]). Also, the EC50 in [10] (ASPC1, read-out: pERK EC50) was < 5 µM.
For the molecule `CCn1c(-c2cccnc2[C@H](C)OC)c2c3cc(ccc31)-c1cc(O)cc(c1)C[C@H](NC(=O)[C@H](C(C)C)N(C)C(=O)[C@H]1CCCN1C(=O)[C@H]1CN1)C(=O)N1CCC[C@H](N1)C(=O)OCC(C)(C)C2` [Example 152], the IC50 in assay [1] lay within 10 to 100 nM; in [2], 10 to 100 nM; in [3], 100 to 1000 nM; in assay [4] it was 100 to 1000 nM; in assay [5] it was 100 to 1000 nM; in [6] it was 100 to 1000 nM. Moreover, the figures for the IC50 in assay [7], in assay [8] and in [9] (setting [15]) were 100 to 1000 nM, 10 to 100 nM and 1 to 10 µM, respectively. For the same molecule, the half-maximal effective concentration (EC50) in assay [10] (ASPC1, read-out: pERK EC50) was < 5 µM.
With `CCn1c(-c2cccnc2[C@H](C)OC)c2c3cc(ccc31)-c1cc(O)cc(c1)C[C@H](NC(=O)[C@H](C(C)C)N(C)C(=O)[C@H]1CC[C@@H](C)N1C(=O)[C@@H]1CN1)C(=O)N1CCC[C@H](N1)C(=O)OCC(C)(C)C2` [Example 153], the IC50 in assay [1] was 10 to 100 nM; in assay [2], 100 to 1000 nM; in [3], 100 to 1000 nM; in [4], 100 to 1000 nM; in [5], 100 to 1000 nM; in assay [6], 100 to 1000 nM. Further, the results for the IC50 in [7], in assay [8] and in assay [9] (setting [15]) were 100 to 1000 nM, 10 to 100 nM and 1 to 10 µM, respectively. The EC50 in [10] (ASPC1, read-out: pERK EC50) was < 5 µM.
Consider `CCn1c(-c2cccnc2[C@H](C)OC)c2c3cc(ccc31)-c1cc(O)cc(c1)C[C@H](NC(=O)[C@H](C(C)C)N(C)C(=O)[C@H]1CC[C@@H](C)N1C(=O)[C@H]1CN1)C(=O)N1CCC[C@H](N1)C(=O)OCC(C)(C)C2` [Example 154], for which the IC50 was in the range of 10 to 100 nM in assay [1]; 100 to 1000 nM in assay [2]; 100 to 1000 nM in assay [3]; 1000 to 10000 nM in [4]; 100 to 1000 nM in assay [5]; 1000 to 10000 nM in assay [6]. In addition, the IC50 in assay [7] fell in the range of 100 to 1000 nM; in assay [8], 10 to 100 nM; in assay [9] (setting [15]), 1 to 10 µM. For the same molecule, in assay [10] (ASPC1, read-out: pERK EC50), the EC50 was < 5 µM.
Turning to `CCn1c(-c2cccnc2[C@H](C)OC)c2c3cc(ccc31)-c1cc(O)cc(c1)C[C@H](NC(=O)[C@H](C(C)C)N(C)C(=O)CN(C)C(=O)[C@H]1CN1CCO)C(=O)N1CCC[C@H](N1)C(=O)OCC(C)(C)C2` (stereo partly shown) [Example 161], the IC50 in [1] is < 10 nM; in assay [2], 10 to 100 nM; in assay [3], 10 to 100 nM; in [4], 100 to 1000 nM; in assay [5], 10 to 100 nM; in assay [6], 100 to 1000 nM. For the same molecule, the IC50 is 10 to 100 nM in [7], < 10 nM in [8] and 1 to 10 µM in assay [9] (setting [15]). Moreover, the EC50 in [10] (ASPC1, read-out: pERK EC50) was < 5 µM.
Take `CCn1c(-c2cccnc2[C@H](C)OC)c2c3cc(ccc31)-c1cc(O)cc(c1)C[C@H](NC(=O)[C@H](C(C)C)N(C)C(=O)CN(C)C(=O)[C@@H]1CN1CCO)C(=O)N1CCC[C@H](N1)C(=O)OCC(C)(C)C2` (stereo partly shown) [Example 162]: the IC50 in assay [1] is < 10 nM; in [2], 10 to 100 nM; in [3] it was 10 to 100 nM; in [4] it was 10 to 100 nM; in assay [5], 10 to 100 nM; in assay [6], 100 to 1000 nM. Besides, the IC50 in assay [7] was 10 to 100 nM; in assay [8], < 10 nM; in assay [9] (setting [15]) it was 1 to 10 µM. Further, the half-maximal effective concentration (EC50) in assay [10] (ASPC1, read-out: pERK EC50) was < 5 µM.
In the case of `CCn1c(-c2cccnc2[C@H](C)OC)c2c3cc(ccc31)-c1cc(O)cc(c1)C[C@H](NC(=O)[C@H](C(C)C)N(C)C(=O)[C@]13C[C@H]1CCN3C(=O)[C@@H]1CN1)C(=O)N1CCC[C@H](N1)C(=O)OCC(C)(C)C2` [Example 166], the IC50 in assay [1] is 100 to 1000 nM; in [2] it was 100 to 1000 nM; in [11], 10 to 100 nM; in [3] it was 100 to 1000 nM; in assay [4], 100 to 1000 nM; in [5], 100 to 1000 nM. Moreover, the IC50 fell in the range of 100 to 1000 nM in [12]; 100 to 1000 nM in assay [6]; 1 to 10 µM in [13]; 1 to 10 µM in assay [14]; 100 to 1000 nM in assay [7]; 100 to 1000 nM in [8]. Besides, in assay [9] (K-Ras G12D, 5-day treatment, read-out: AsPC-1 Cell Viability assay data IC50), the IC50 is 1 to 10 µM. The EC50 in assay [10] (ASPC1, AsPC-1 KRAS G12D, read-out: pERK EC50) was < 5 µM.
